Measurements taken from patent US10100051B2, “Compound of 5-hydroxyl-1,7-naphthyridine substituted by aryloxy or heteroaryloxy, preparation method thereof and pharmaceutical use thereof” (SHENYANG SUNSHINE PHARMACEUTICAL CO. LTD., priority 2015, dated 2018).
Where “and” joins values, the source holds several entries; their conditions need not be identical. Identical values can stand only once.

System: male Balb/c mice
Assay: Effect on increasing erythrocyte of normal mice (reticulocyte count)
Format: in vivo
Set-up: unit not given here
Description: Biological Example 3: Effect of the Compounds of the Present Invention on Increasing Erythrocyte of Normal Mice
80 male Balb/c mice were divided into 11 groups, with 8 animals for each drug group, 10 animals for blank control group. Drug group: AKB-6548, 100 mg/kg, oral administration, once a day×3; FG-4592, 25 mg/kg, oral administration, once a day×3; EPO, 100 IU/kg, Day 1 and Day 3, subcutaneous injection, as positive control groups. Each of the compounds of the present invention was orally administrated at 25 mg/kg, once a day×3. Four hours after the last administration, orbital blood of all animals were collected and treated with EDTA-K2 anticoagulant, and reticulocytes (RETIC) were counted with a blood cell automated analyzer.

[1] = 100 mg/kg oral, once a day × 3, four hours after the last administration
[2] = 25 mg/kg oral, once a day × 3, four hours after the last administration
[3] = 100 IU/kg subcutaneous injection, Day 1 and Day 3, four hours after the last administration

O=C(O)CNC(=O)c1ncc(-c2cccc(Cl)c2)cc1O [AKB-6548-A, reference compound]
RETIC, Average [1]: 4.75
RETIC, individual mice [1]: 6.1 and 4 (2×) and 4.2 (2×) and 4.9 and 5.3 (2×)

Cc1nc(C(=O)NCC(=O)O)c(O)c2ccc(Oc3ccccc3)nc12 [Compound 1, 2-(5-hydroxy-8-methyl-2-phenoxy-1,7-naphthyridine-6-formamido) acetic acid]
RETIC, Average [2]: 4.73
RETIC, individual mice [2]: 4.4 and 5.2 and 4.8 and 5 and 5.3 and 4.1 (2×) and 4.9

Cc1nc(C(=O)NCC(=O)O)c(O)c2ccc(Oc3ccc4c(c3)OCCO4)nc12 [Compound 12, 2-(2-((2,3-dihydrobenzo[b][1,4]dioxo-6-yl)oxy)-5-hydroxy-8-methyl-1,7-naphthyridine-6-formamido) acetic acid]
RETIC, Average [2]: 5.24
RETIC, individual mice [2]: 5.4 and 5 (3×) and 6 and 5.6 (2×) and 4.3

COc1ccc(Oc2ccc3c(O)c(C(=O)NCC(=O)O)nc(C)c3n2)cc1 [Compound 14, 2-(5-hydroxy-2-(4-methoxyphenoxy)-8-methyl-1,7-naphthyridine-6-formamido) acetic acid]
RETIC, Average [2]: 5.73
RETIC, individual mice [2]: 6.1 and 6.6 and 5.8 (2×) and 6.5 and 5.7 and 4.4 and 4.9

Cc1nc(C(=O)NCC(=O)O)c(O)c2ccc(Oc3ccccc3)cc12 [FG-4592-A, reference compound]
RETIC, Average [2]: 3.73
RETIC, individual mice [2]: 3.8 (2×) and 4 (2×) and 3.5 and 4.4 and 3.4 and 3.6

EPO: erythropoietin, glycoprotein hormone; exogenous positive control given subcutaneously
RETIC, Average [3]: 3.73
RETIC, individual mice [3]: 5.9 and 2.5 and 2.2 (2×) and 2.6 and 4.3 and 5.1 and 5
